Measurements from paper PMC5578373, “Inhibitory Kappa B Kinase α (IKKα) Inhibitors That Recapitulate Their Selectivity in Cells against Isoform-Related Biomarkers” (Journal of Medicinal Chemistry, 2017).
“Also recorded” adds a separate entry of the source.

How the values were obtained:
[1] = system: IKKβ-dependent IκBα degradation in U2OS cells; test: TNFα-induced IκBα degradation in U2OS cells, Western blot; type: cell-based, human; conditions: highest concentration 100 μM, TNF-α (10 ng/mL) 30 min
Experimental: (§1) Two IKKβ-dependent readouts were selected to assess selectivity over IKKβ. First, TNFα stimulates IκBα degradation through activation of IKKβ and if IKKβ is inhibited, then a band corresponding to the IκBα protein should be evident by Western analysis. Second, IKKβ phosphorylates p65 on Ser536, which can also be assessed by Western blot analysis. Only at the highest concentration (100 μM) of 48 was IκBα degradation and p65 (Ser536) phosphorylation inhibited (Figure 9b). Even at this high concentration, these effects were not apparent following pretreatment with 47 (Figure 10b).
(§2) Figure 9 Effect of compound 48 on (a) FCS-stimulated noncanonical and (b) TNF-α-induced canonical NF-kB activation in U2OS cells. […] Whole cell lysate were prepared, separated by SDS-PAGE, and assessed for (a) inhibition of p100 phosphorylation (Ser866/870) and (b) IkB-α and p-p65 (Ser536) status. […]
as §2, with “10” for “9”, “47” for “48”
(§3) Whole cell lysates were prepared from U2OS and status of IκBα, p65, p-p65 (Ser536), and p-p100 (Ser 866/870) assessed by Western blotting as described in Mackenzie et al. (2007).[46]

EphB4(h) = biological target: T1, EphB4(h) (Homo sapiens, UniProt P54760); test: Millipore Kinase Profiler, single concentration; type: biochemical; conditions: duplicate assay points, read-out: % residual activity
T1 construct: purchased Millipore KinaseProfiler
From the text: (§4) Kinase profiling of compound 48 was outsourced to Millipore, specifically the Kinase Profiler Customer Service for single concentration studies using duplicate assay points.

EGFR(h) = biological target: T2, EGFR(h) (Homo sapiens, UniProt P00533); test: Millipore Kinase Profiler, single concentration; type: biochemical; conditions: duplicate assay points, read-out: % residual activity
T2 construct: purchased Millipore KinaseProfiler
T2 sequence (P00533 25-1210): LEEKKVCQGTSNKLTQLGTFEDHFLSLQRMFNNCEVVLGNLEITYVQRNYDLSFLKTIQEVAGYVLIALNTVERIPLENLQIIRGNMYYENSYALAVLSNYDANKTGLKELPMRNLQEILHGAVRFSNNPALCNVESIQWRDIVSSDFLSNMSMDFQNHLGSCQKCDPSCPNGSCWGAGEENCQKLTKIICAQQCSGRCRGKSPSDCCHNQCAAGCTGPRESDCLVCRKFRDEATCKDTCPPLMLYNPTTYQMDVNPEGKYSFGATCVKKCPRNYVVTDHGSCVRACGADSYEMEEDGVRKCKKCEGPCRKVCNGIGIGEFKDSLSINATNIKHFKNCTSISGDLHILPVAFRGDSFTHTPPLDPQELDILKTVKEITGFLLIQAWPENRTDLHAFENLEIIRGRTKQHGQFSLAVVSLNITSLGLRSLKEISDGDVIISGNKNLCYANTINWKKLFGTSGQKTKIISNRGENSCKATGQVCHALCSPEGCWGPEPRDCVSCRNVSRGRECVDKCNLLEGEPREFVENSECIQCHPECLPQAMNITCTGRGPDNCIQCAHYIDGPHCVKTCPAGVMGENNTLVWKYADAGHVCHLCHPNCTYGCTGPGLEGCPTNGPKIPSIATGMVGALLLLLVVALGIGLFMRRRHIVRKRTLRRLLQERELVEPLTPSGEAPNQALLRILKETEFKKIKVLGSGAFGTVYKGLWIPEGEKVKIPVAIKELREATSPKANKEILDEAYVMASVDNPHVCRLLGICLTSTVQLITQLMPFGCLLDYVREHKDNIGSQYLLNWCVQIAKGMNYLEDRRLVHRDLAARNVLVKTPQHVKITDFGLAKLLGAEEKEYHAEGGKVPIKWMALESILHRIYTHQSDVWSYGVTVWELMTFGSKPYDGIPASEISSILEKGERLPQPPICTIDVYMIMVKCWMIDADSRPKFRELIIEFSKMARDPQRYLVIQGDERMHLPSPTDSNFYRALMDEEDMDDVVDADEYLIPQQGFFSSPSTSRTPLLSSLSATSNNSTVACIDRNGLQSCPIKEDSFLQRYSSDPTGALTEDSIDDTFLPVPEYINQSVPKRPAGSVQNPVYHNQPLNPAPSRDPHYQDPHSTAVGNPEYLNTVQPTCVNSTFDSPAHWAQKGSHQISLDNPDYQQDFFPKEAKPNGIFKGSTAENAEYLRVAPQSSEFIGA
From the text: as §4

FGFR3(h) = biological target: T3, FGFR3(h) (Homo sapiens, UniProt P22607); test: Millipore Kinase Profiler, single concentration; type: biochemical; conditions: duplicate assay points, read-out: % residual activity
T3 construct: purchased Millipore KinaseProfiler
T3 sequence (P22607 23-806): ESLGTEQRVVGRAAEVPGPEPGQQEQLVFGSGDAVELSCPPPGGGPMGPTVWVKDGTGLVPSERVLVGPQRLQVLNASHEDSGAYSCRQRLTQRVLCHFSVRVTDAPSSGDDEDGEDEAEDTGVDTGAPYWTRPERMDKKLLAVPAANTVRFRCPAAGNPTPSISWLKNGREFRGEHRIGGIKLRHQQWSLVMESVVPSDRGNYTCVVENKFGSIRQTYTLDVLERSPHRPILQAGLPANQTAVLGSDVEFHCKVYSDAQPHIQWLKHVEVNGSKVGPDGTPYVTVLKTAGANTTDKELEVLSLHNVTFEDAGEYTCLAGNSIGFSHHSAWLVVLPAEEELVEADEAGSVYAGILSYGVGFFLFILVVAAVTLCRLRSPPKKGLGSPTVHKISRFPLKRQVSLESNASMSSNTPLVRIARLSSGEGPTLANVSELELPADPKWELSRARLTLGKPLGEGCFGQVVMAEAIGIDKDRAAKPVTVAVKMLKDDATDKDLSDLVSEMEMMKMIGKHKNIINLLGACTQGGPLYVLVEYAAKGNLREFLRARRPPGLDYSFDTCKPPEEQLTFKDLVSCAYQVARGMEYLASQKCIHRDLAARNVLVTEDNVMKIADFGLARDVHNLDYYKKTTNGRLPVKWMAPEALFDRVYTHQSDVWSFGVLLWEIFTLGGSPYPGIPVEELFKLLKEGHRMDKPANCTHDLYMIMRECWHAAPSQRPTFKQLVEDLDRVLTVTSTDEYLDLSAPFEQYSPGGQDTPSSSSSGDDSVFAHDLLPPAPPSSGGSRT
From the text: as §4

DAPK1(h) = biological target: T4, DAPK1(h) (Homo sapiens, UniProt P53355); test: Millipore Kinase Profiler, single concentration; type: biochemical; conditions: duplicate assay points, read-out: % residual activity
T4 construct: purchased Millipore KinaseProfiler
From the text: as §4

PKBα(h) = biological target: T5, PKBα(h) (Homo sapiens, UniProt P31749); test: Millipore Kinase Profiler, single concentration; type: biochemical; conditions: duplicate assay points, read-out: % residual activity
T5 construct: purchased Millipore KinaseProfiler
From the text: as §4

PDGFRβ(h) = biological target: T6, PDGFRβ(h) (Homo sapiens, UniProt P09619); test: Millipore Kinase Profiler, single concentration; type: biochemical; conditions: duplicate assay points, read-out: % residual activity
T6 construct: purchased Millipore KinaseProfiler
T6 sequence (P09619 33-1106): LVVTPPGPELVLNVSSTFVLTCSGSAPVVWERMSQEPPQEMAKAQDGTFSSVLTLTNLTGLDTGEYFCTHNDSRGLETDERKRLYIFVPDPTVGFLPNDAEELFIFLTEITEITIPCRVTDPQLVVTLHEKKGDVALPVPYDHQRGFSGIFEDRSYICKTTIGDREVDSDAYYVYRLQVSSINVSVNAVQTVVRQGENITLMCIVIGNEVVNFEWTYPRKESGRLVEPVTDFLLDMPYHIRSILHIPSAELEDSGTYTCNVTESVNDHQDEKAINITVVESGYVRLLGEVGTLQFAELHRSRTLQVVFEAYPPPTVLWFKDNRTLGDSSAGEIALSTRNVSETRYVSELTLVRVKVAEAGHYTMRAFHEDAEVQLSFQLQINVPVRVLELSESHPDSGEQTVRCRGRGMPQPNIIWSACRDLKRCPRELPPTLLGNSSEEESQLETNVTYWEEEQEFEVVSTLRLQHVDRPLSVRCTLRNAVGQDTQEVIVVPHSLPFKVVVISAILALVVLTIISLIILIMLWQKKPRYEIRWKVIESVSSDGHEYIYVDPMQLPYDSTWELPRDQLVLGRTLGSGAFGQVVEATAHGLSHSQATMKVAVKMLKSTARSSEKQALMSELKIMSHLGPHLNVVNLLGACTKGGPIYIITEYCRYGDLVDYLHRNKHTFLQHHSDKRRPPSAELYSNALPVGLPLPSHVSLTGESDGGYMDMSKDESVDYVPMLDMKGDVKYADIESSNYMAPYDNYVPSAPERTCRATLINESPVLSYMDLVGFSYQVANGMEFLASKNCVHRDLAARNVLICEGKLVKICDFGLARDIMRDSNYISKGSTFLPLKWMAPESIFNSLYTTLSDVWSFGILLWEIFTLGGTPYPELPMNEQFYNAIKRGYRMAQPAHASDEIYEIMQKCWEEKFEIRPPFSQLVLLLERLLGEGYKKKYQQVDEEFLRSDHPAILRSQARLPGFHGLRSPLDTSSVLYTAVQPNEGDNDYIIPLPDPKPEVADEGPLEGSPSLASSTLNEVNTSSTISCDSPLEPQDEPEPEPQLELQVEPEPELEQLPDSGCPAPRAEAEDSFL
From the text: as §4

CHK2(h) = biological target: T7, CHK2(h) (Homo sapiens, UniProt O96017); test: Millipore Kinase Profiler, single concentration; type: biochemical; conditions: duplicate assay points, read-out: % residual activity
T7 construct: purchased Millipore KinaseProfiler
T7 sequence (O96017 whole entry): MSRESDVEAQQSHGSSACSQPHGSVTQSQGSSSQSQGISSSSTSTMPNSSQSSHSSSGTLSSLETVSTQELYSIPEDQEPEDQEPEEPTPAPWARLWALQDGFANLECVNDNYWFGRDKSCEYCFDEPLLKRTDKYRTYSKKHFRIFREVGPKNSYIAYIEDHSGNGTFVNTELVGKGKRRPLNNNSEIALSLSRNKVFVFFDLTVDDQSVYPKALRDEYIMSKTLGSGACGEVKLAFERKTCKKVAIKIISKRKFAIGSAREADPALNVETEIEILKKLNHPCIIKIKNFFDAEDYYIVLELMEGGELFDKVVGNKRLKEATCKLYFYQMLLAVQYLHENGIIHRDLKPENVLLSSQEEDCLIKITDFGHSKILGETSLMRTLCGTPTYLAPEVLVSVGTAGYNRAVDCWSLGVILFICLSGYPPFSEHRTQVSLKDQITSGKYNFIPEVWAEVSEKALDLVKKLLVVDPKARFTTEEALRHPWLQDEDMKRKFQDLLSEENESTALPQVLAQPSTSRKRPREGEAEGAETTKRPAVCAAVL
From the text: as §4

AMPKα1(h) = biological target: T8, AMPKα1(h) (Homo sapiens, UniProt Q13131); test: Millipore Kinase Profiler, single concentration; type: biochemical; conditions: duplicate assay points, read-out: % residual activity
T8 construct: purchased Millipore KinaseProfiler
From the text: as §4

PAK2(h) = biological target: T9, PAK2(h) (Homo sapiens, UniProt Q13177); test: Millipore Kinase Profiler, single concentration; type: biochemical; conditions: duplicate assay points, read-out: % residual activity
T9 construct: purchased Millipore KinaseProfiler
From the text: as §4

ROCK-II(h) = biological target: T10, ROCK-II(h) (Homo sapiens, UniProt O75116); test: Millipore Kinase Profiler, single concentration; type: biochemical; conditions: duplicate assay points, read-out: % residual activity
T10 construct: purchased Millipore KinaseProfiler
From the text: as §4

CK1δ(h) = biological target: T11, CK1δ(h) (Homo sapiens, UniProt P48730); test: Millipore Kinase Profiler, single concentration; type: biochemical; conditions: duplicate assay points, read-out: % residual activity
T11 construct: purchased Millipore KinaseProfiler
From the text: as §4

CaMKI(h) = biological target: T12, CaMKI(h) (Homo sapiens, UniProt Q14012); test: Millipore Kinase Profiler, single concentration; type: biochemical; conditions: duplicate assay points, read-out: % residual activity
T12 construct: purchased Millipore KinaseProfiler
From the text: as §4

PKCη(h) = biological target: T13, PKCη(h) (Homo sapiens, UniProt P24723); test: Millipore Kinase Profiler, single concentration; type: biochemical; conditions: duplicate assay points, read-out: % residual activity
T13 construct: purchased Millipore KinaseProfiler
From the text: as §4

HIPK1(h) = biological target: T14, HIPK1(h) (Homo sapiens, UniProt Q86Z02); test: Millipore Kinase Profiler, single concentration; type: biochemical; conditions: duplicate assay points, read-out: % residual activity
T14 construct: purchased Millipore KinaseProfiler
From the text: as §4

CK2(h) = biological target: T15, CK2(h) (Homo sapiens, UniProt P68400); test: Millipore Kinase Profiler, single concentration; type: biochemical; conditions: duplicate assay points, read-out: % residual activity
T15 construct: purchased Millipore KinaseProfiler
T15 sequence (P68400 whole entry): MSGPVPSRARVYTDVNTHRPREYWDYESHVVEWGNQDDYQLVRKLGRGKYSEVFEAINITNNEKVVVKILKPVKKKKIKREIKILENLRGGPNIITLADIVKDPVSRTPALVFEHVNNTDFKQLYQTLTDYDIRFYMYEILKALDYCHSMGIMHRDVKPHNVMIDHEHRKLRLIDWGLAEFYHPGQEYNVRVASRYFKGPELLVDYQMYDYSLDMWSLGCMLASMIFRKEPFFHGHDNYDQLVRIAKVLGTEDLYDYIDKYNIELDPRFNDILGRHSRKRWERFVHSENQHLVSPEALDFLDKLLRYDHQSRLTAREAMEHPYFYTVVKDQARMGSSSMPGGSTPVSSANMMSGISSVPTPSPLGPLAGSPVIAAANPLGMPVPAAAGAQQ
T15 sequence (P67870 whole entry partner): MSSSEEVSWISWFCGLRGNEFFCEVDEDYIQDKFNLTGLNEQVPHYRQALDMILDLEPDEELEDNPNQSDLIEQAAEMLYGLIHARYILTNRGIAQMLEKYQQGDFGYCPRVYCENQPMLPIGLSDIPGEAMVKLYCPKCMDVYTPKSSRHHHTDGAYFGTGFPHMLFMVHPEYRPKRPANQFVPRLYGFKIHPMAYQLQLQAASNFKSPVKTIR
From the text: as §4

GSK3β(h) = biological target: T16, GSK3β(h) (Homo sapiens, UniProt P49841); test: Millipore Kinase Profiler, single concentration; type: biochemical; conditions: duplicate assay points, read-out: % residual activity
T16 construct: purchased Millipore KinaseProfiler
From the text: as §4

MAPKAP-K2(h) = biological target: T17, MAPKAP-K2(h) (Homo sapiens, UniProt P49137); test: Millipore Kinase Profiler, single concentration; type: biochemical; conditions: duplicate assay points, read-out: % residual activity
T17 construct: purchased Millipore KinaseProfiler
From the text: as §4

NEK2(h) = biological target: T18, NEK2(h) (Homo sapiens, UniProt P51955); test: Millipore Kinase Profiler, single concentration; type: biochemical; conditions: duplicate assay points, read-out: % residual activity
T18 construct: purchased Millipore KinaseProfiler
From the text: as §4

LIMK1(h) = biological target: T19, LIMK1(h) (Homo sapiens, UniProt P53667); test: Millipore Kinase Profiler, single concentration; type: biochemical; conditions: duplicate assay points, read-out: % residual activity
T19 construct: purchased Millipore KinaseProfiler
From the text: as §4

JAK2(h) = biological target: T20, JAK2(h) (Homo sapiens, UniProt O60674); test: Millipore Kinase Profiler, single concentration; type: biochemical; conditions: duplicate assay points, read-out: % residual activity
T20 construct: purchased Millipore KinaseProfiler
From the text: as §4

MEK1(h) = biological target: T21, MEK1(h) (Homo sapiens, UniProt Q02750); test: Millipore Kinase Profiler, single concentration; type: biochemical; conditions: duplicate assay points, read-out: % residual activity
T21 construct: purchased Millipore KinaseProfiler
From the text: as §4

ALK(h) = biological target: T22, ALK(h) (Homo sapiens, UniProt Q9UM73); test: Millipore Kinase Profiler, single concentration; type: biochemical; conditions: duplicate assay points, read-out: % residual activity
T22 construct: purchased Millipore KinaseProfiler
From the text: as §4

cSRC(h) = biological target: T23, cSRC(h) (Homo sapiens, UniProt P12931); test: Millipore Kinase Profiler, single concentration; type: biochemical; conditions: duplicate assay points, read-out: % residual activity
T23 construct: purchased Millipore KinaseProfiler
From the text: as §4

PKD2(h) = biological target: T24, PKD2(h) (Homo sapiens, UniProt Q9BZL6); test: Millipore Kinase Profiler, single concentration; type: biochemical; conditions: duplicate assay points, read-out: % residual activity
T24 construct: purchased Millipore KinaseProfiler
From the text: as §4

Fes(h) = biological target: T25, Fes(h) (Homo sapiens, UniProt P07332); test: Millipore Kinase Profiler, single concentration; type: biochemical; conditions: duplicate assay points, read-out: % residual activity
T25 construct: purchased Millipore KinaseProfiler
T25 sequence (P07332 whole entry): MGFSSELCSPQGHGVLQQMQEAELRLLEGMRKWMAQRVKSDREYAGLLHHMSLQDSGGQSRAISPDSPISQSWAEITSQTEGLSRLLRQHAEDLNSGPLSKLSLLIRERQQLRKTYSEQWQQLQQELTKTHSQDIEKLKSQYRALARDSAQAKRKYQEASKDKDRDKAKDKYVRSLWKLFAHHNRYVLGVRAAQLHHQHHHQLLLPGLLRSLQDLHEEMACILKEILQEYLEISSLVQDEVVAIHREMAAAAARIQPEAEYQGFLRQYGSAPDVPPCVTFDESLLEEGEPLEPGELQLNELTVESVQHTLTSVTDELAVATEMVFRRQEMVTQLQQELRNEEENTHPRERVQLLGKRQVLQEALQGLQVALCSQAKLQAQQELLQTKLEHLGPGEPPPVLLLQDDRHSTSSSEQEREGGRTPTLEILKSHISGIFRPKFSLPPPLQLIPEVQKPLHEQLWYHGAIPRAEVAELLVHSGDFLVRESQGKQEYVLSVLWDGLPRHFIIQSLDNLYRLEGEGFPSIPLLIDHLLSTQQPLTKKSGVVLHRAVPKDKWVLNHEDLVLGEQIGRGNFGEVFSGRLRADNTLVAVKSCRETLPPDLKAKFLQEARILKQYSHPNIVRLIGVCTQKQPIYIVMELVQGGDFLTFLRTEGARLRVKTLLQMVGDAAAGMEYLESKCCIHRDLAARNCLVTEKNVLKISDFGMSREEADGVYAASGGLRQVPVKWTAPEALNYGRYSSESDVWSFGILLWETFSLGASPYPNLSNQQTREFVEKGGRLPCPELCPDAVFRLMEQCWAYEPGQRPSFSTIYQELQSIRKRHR
From the text: as §4

IR(h) = biological target: T26, IR(h) (Homo sapiens, UniProt P06213); test: Millipore Kinase Profiler, single concentration; type: biochemical; conditions: duplicate assay points, read-out: % residual activity
T26 construct: purchased Millipore KinaseProfiler
From the text: as §4

c-RAF(h) = biological target: T27, c-RAF(h) (Homo sapiens, UniProt P04049); test: Millipore Kinase Profiler, single concentration; type: biochemical; conditions: duplicate assay points, read-out: % residual activity
T27 construct: purchased Millipore KinaseProfiler
From the text: as §4

[2] = system: IKKβ-dependent p65 (Ser536) phosphorylation in U2OS cells; test: TNFα-induced p65 (Ser536) phosphorylation in U2OS cells, Western blot; type: cell-based, human; conditions: highest concentration 100 μM, TNF-α (10 ng/mL) 30 min
Experimental: as §1, §2
as §2, with “10” for “9”, “47” for “48”
as §3

remaining activity at 10 µM (EphB4(h)): 56%
remaining activity at 10 µM (EGFR(h)): 108%
remaining activity at 10 µM (FGFR3(h)): 32%
remaining activity at 10 µM (DAPK1(h)): 99%
remaining activity at 10 µM (PKBα(h)): 93%
remaining activity at 10 µM (PDGFRβ(h)): 104%
remaining activity at 10 µM (CHK2(h)): 17%
remaining activity at 10 µM (AMPKα1(h)): 22%
remaining activity at 10 µM (PAK2(h)): 73%
remaining activity at 10 µM (ROCK-II(h)): 20%
remaining activity at 10 µM (CK1δ(h)): 4%
remaining activity at 10 µM (CaMKI(h)): 12%
remaining activity at 10 µM (PKCη(h)): 53%
remaining activity at 10 µM (HIPK1(h)): 90%
remaining activity at 10 µM (CK2(h)): 37%
remaining activity at 10 µM (GSK3β(h)): 16%
remaining activity at 10 µM (MAPKAP-K2(h)): 69%
remaining activity at 10 µM (NEK2(h)): 96%
remaining activity at 10 µM (LIMK1(h)): 30%
remaining activity at 10 µM (JAK2(h)): 29%
remaining activity at 10 µM (MEK1(h)): 14%
remaining activity at 10 µM (ALK(h)): 84%
remaining activity at 10 µM (cSRC(h)): 76%
remaining activity at 10 µM (PKD2(h)): 26%
remaining activity at 10 µM (Fes(h)): 27%
remaining activity at 10 µM (IR(h)): 89%
remaining activity at 10 µM (c-RAF(h)): 37%
Structure (SMILES): N#Cc1c[nH]c2nc(N)nc(-c3ccc(S(N)(=O)=O)cc3)c12 [Compound 48, 4-(2-Amino-5-cyano-7H-pyrrolo[2,3-d]pyrimidin-4-yl)benzenesulfonamide]
inhibition of TNFα-stimulated IκBα degradation [1]: inhibited; also recorded: small effect
inhibition of TNFα-stimulated p65 (Ser536) phosphorylation [2]: inhibited; also recorded: small effect
